A melting point compilation (Tetko et al.; mined from patent text by program, amines drawn as free bases though some values may be those of a salt)

| Compound | melting point [°C] |
| --- | --- |
| COc1ccc(C(=O)N(C)Cc2cccc(-c3ccc(CC4SC(=O)NC4=O)cc3)c2)cc1 (stereo not drawn) | 170 |
| O=C(NCc1ccccc1O)c1[nH]c2ccc(Cl)cc2c1S(=O)(=O)c1ccccc1 | 243 to 244 |
| CCOC(=O)C(=CNc1cccc(N)c1)C(=O)OCC | 71 to 74 |
| Cc1ncn(-c2nccc3[nH]c(=O)ccc23)n1 | > 300 |
| O=C(O)c1ccc2c(c1)S(=O)(=O)c1ccccc1C=C2 | 268 to 270 |
| CC(=O)N1CCN=C1Nc1cc(C)nn1-c1ccc(F)cc1 | 189 to 191 |
| Cc1ccc2c(c1)NC(=O)c1ccccc1O2 | 231 to 232 |
| CC(C)(C)c1cc(C=C(C#N)C(N)=S)cc(C(C)(C)C)c1 | 172 to 174 |
| Cc1nc(N2CCN(Cc3ccccc3)C2=O)sc1C(=O)NCc1ccccc1F | 167 to 168 |
| CCCCCCC1C(=O)NC(C(=O)SC2CCCCC2)(C(O)C2C=CCCC2)C1(C)O (stereo not drawn) | 85 |
| COc1cc(OC)c(-c2csc(NC(=O)c3cc4ccccc4[nH]3)n2)c(OC)n1 | 285 to 287 |
| CC(C)(C)OC(=O)NNC(=O)c1ccc2ncsc2c1 | 128 to 129 |
| CO/C=C(/C(=O)OC)c1ccccc1COc1cccc(Cl)n1 | 91 to 92 |
| CS(=O)(=O)c1ccc(Oc2ccc3[nH]c(C4=NCC(CC(=O)NCC(F)(F)F)S4)cc3c2)cn1 (stereo not drawn) | 234 to 235 |
| COC1(c2ccc(C(F)(F)F)cc2CN(Cc2cc(C(F)(F)F)cc(C(F)(F)F)c2)c2nnn(C)n2)CCCCCC1 | 103 to 104 |
| O=c1ccccn1[C@@H]1c2ccccc2OCC[C@H]1O (relative stereo) | 232 to 234 |
| COc1cccc(Cc2ccc(-c3c[nH]nc3N)cc2)c1 | 118 to 120 |
| CCOC(=O)/C=C/c1ccc(O)c([N+](=O)[O-])c1 | 114 to 115 |
| O=C1C=C(c2cccn2Cc2ccccc2)C(=O)c2ccccc21 | 99 |
| O=S(=O)(O)c1ccc(N(Cc2ccc(F)cc2)Cc2ccc(Cl)cc2)cc1 | > 250 |
| COc1cc2[nH]c(N(C)Cc3cccc(OCCO)c3)nc(=O)c2c(OC)c1OC | 146 to 148 |
| CCN(CC)C(=O)n1ccc(Sc2cccc(C)c2)n1 | 96 to 98 |
| Cc1cccc(NCC(=O)Nc2ccc(S(N)(=O)=O)cc2Cl)c1 | 185 to 189 |
| O=C(Nc1ccc2cccnc2c1)c1cc2cc(F)ccc2n1Cc1cccc(F)c1 | 222 to 223 |
| COc1cccc(NS(=O)(=O)c2ccc(N3CCNC3=O)cc2)c1 | 179 to 181 |

| Compound | melting point [°C] |
| --- | --- |
| CSC(=O)Cn1c(=O)sc2ccccc21 | 146 to 147 |
| CC1(C)CC(CCCCNc2nc(Cl)nc(NCCCCC3CC(C)(C)NC(C)(C)C3)n2)CC(C)(C)N1 | 40 to 42 |
| CSc1cccc(S(N)(=O)=O)c1 | 126 to 127 |
| O=C1c2cc3c(cc2CCC1Br)OCC3 (stereo not drawn) | 106 |
| Cc1cccc(-c2ccc3c(c2)CC[C@H]2N(C)C(=O)CC[C@]32C)c1C | 133 to 140 |
| CN(C)Cc1nc(N)nc(N)c1-c1ccc(Cl)cc1Cl | 170 to 172 |
| CON1C(C)(C)CC(OC(=O)CCc2cc(-n3nc4ccc(Cl)cc4n3)c(O)c(C(C)(C)C)c2)CC1(C)C | 132 to 137 |
| CCOC(Cc1ccc(OCCCc2nc(-c3ccc(C(F)(F)F)cc3)oc2C)c2ccsc12)C(=O)O (stereo not drawn) | 112 to 114 |
| COC(=O)c1ccncc1OC | 132 to 135 |
| O=C(CCN1CCCCC1)Nc1cccc([N+](=O)[O-])c1 | 95 to 96 |
| CCOP(=O)(O)C(=Nc1ccc(-c2c[nH]cn2)cc1)NCCSC | 240 to 241 |
| CCOC(=O)Cc1ccc(-c2ccc(F)cc2F)c(F)c1 | 50 to 52 |
| COc1cc(-c2nc(N)sc2SCC2CCCCC2)c(OC)cc1C | 111 to 112 |
| Cc1ccccc1-c1cc(F)c2ncc(C(=O)NCc3ccc(Cl)cc3)c(O)c2c1 | 259 to 265 |
| COc1cc2c(CCN)c[nH]c2cc1Cl | 150 |
| COc1ccc(NCC(=O)N2CCC(Cc3ccc(F)cc3)CC2)cc1 | 141 to 143 |
| NCCN1CCN(CC(=O)N2c3ccccc3C(=O)Nc3cccnc32)CC1 | 188 to 190 |
| CCOC(=O)C1=C(N)NC(N)=C(C(=O)OCC)C1c1cccc(C(F)(F)F)c1 | 170 |
| CC(=O)O[C@H]1CS[C@H](C(=O)O)O1 (relative stereo) | 111 |
| CC(C)(C)c1cc(SCCCC(=O)O)cc(C(C)(C)C)c1O | 112 to 114 |
| CC(C)(C)OC(=O)NCCCCC(=O)NCCC(=O)O | 70 |
| CC1CN(C2=Nc3ccccc3Oc3ccccc32)C(C)CN1 (stereo not drawn) | 46 to 48 |
| COc1ccc2c(n1)C1(CO2)C(=O)N(CC(=O)Nc2ccccc2F)c2ccccc21 (stereo not drawn) | > 170 |
| Cc1c(C(O)C(F)(F)F)oc2c(Br)cccc12 (stereo not drawn) | 93 |
| CC(C)N(Cc1ccccc1)CC(O)COc1cccc2[nH]cc(C=O)c12 (stereo not drawn) | 107 to 109 |

| Compound | melting point [°C] |
| --- | --- |
| C(#CCN(Cc1ccccc1)Cc1ccccc1)CN(Cc1ccccc1)Cc1ccccc1 | 105 to 106 |
| CC(=O)Nc1cc(C(F)(F)F)ccc1N1CCOCC1 | 85 |
| O=C(O)C1=CSCCO1 | 144 |
| O=C(Nc1cccc(O)c1)C(F)(F)F | 133 to 135 |
| COC(=O)CSc1nc(Nc2ccc(N3CCC(C)CC3)cc2)ncc1[N+](=O)[O-] | 180 to 184 |
| OCc1nc(-c2ccc(Cl)cc2)co1 | 68 to 71.5 |
| CCOC(=O)CC(=O)c1cc(F)c(OC)nc1Nc1ccc(F)cc1F | 148 to 149 |
| COc1ccc2cc(C3=CCNCC3)sc2c1 | 124 to 127 |
| CCOc1ccc(C=CC(=O)c2c(OC)cc(OC)cc2OC(=O)CC)cc1 | 105 |
| CN(C(=O)C(Cl)(Cl)Cl)c1nc(Cl)c([N+](=O)[O-])s1 | 146 to 149 |
| O=C(O)Cc1cccc(CNC(=O)C2Cc3ccccc3N2S(=O)(=O)c2ccc(-c3cccc(C(F)(F)F)c3)cc2)c1 (stereo not drawn) | 80 |
| O=C(Oc1cc(OC(=O)c2cc(O)c(O)c(O)c2)c2ccccc2c1)c1cc(O)c(O)c(O)c1 | 163 to 164 |
| Clc1ccc2[nH]nc(N3CCNCC3)c2c1 | 60 to 62 |
| CCC/C(=C\C=C\C(=O)O)c1ccc(OC)cc1 | 151 to 152 |
| CN(C=O)C1c2ccccc2CCc2cc(Cl)ccc21 (stereo not drawn) | 122 to 124 |
| O=C(c1cc(N2CCCC(F)(F)C2)ccn1)N(O)Cc1ccccc1 | 140 to 145 |
| Cc1cc(-n2c(C)ccc2-c2ccc(S(C)(=O)=O)cc2)ccc1-c1ccco1 | 160 to 162 |
| O=C(Nc1ccccc1)C1=C(c2ccccc2)C(c2ccccc2)OC1=O (stereo not drawn) | 148 to 150 |
| Cc1cn(-c2nccc3ccccc23)cc1C(=O)O | 245 |
| CCN1C(=O)Cc2cc3ccccc3cc2S1(=O)=O | 170 to 171 |
| C=C1N(C(C)C)C(=O)OC12CCN(C(=O)NC(=O)c1cccnc1Cl)CC2 | 186 to 188 |
| Nc1nnc(SCC(=O)C23CC4CC(CC(C4)C2)C3)s1 | 198 to 199 |
| CCOc1cccc(CC(=O)O)c1OCCCc1cc(OC(C)C)nn1Cc1ccc(Cl)cc1Cl | 132 to 133 |
